Holding throughout (type): in vivo
One assay has as its system Setaria viridis. Nature of the assay: Greenhouse post-emergence herbicidal activity on SETVI (green foxtail), 20 DAT. The text has this:
(§1) The test plants were first grown to a height of 3 to 20 cm, depending on the plant habit, and only then treated (post-emergence treatment). Here, the herbicidal combinations were suspended, emulsified or dissolved in water as distribution medium and afterwards applied by spraying, using finely distributing nozzles.
(§2) The herbicides A, B and C were used as commercially available formulations and introduced to the spray liquor with the amount of solvent system used for applying the active compound. In the examples, the solvent used was water.
(§3) The test period extended over 20 days. During this time, the plants were tended, and their response to the treatments with active compounds was evaluated.
(§4) The evaluation for the damage caused by the chemical compositions was carried out using a scale from 0 to 100%, compared to the untreated control plants. Here, 0 means no damage and 100 means complete destruction of the plants.
(§5) The plants used in the greenhouse experiments belonged to the following species:
(§6) The value E, which is to be expected if the activity of the individual compounds is just additive, was calculated using the method of S. R. Colby (1967) “Calculating synergistic and antagonistic responses of herbicide combinations”, Weeds 15, p. 22 ff. For two component mixtures the value E was calculated by the following formula E=X+Y−(X·Y/100)
(§7) where X=effect in percent using a mixture of herbicides A and B at application rates a and b, respectively; • Y=effect in percent using herbicide C at an application rate c; • E=expected effect (in %) of A+B+C at application rates a+b+c.
(§8) If the value observed in this manner is higher than the value E calculated according to Colby, a synergistic effect is present.
(§9) Tables 1 to 41 relate to the herbicidal activities of the binary mixture of herbicides A and B, of herbicide C individually and of their combinations in post-emergence applications assessed 20 days after treatment (20 DAT).

Another assay deals with Echinochloa crus-galli. Nature of the assay: Greenhouse post-emergence herbicidal activity on ECHCG (barnyardgrass), 20 DAT.
Source text: as §1, §2, §3, §4, §5, §6, §7, §8, §9

The subject of another assay is Digitaria sanguinalis. Nature of the assay: Greenhouse post-emergence herbicidal activity on DIGSA (large crabgrass), 20 DAT. The note with it: DIGSA.
Source text: as §1, §2, §3, §4, §5, §6, §7, §8, §9

For a further assay, the system named is Amaranthus retroflexus. Nature of the assay: Greenhouse post-emergence herbicidal activity on AMARE (pig weed), 20 DAT. To be noted: AMARE.
Source text: as §1, §2, §3, §4, §5, §6, §7, §8, §9

Another assay has as its system Brachiaria decumbens. Nature of the assay: Greenhouse post-emergence herbicidal activity on BRADC (Surinam grass), 20 DAT.
Source text: as §1, §2, §3, §4, §5, §6, §7, §8, §9

The next assay concerns Avena fatua. Nature of the assay: Greenhouse post-emergence herbicidal activity on AVEFA (wild oat), 20 DAT.
Source text: as §1, §2, §3, §4, §5, §6, §7, §8, §9

Another assay deals with Abutilon theophrasti. Nature of the assay: Greenhouse post-emergence herbicidal activity on ABUTH (velvetleaf), 20 DAT. The note with it: ABUTH; for inhibition at 0.5 g/ha: 0.5 g ai/ha.
Source text: as §1, §2, §3, §4, §5, §6, §7, §8, §9

The next assay deals with Solarium nigrum. Nature of the assay: Greenhouse post-emergence herbicidal activity on SOLNI (black nightshade), 20 DAT. The note with it: C 0.5 g ai/ha.
Source text: as §1, §2
The test period extended over 20 days. During this time, the plants were tended, and their response to the treatments with active compounds was evaluated. […]
The value E, which is to be expected if the activity of the individual compounds is just additive, was calculated using the method of S. R. Colby (1967) “Calculating synergistic and antagonistic responses of herbicide combinations”, Weeds 15, p. […] For two component mixtures the value E was calculated by the following formula E=X+Y−(X·Y/100) […]
as §8, §9

The subject of the next assay is Brachiaria platyphylla. Nature of the assay: Greenhouse post-emergence herbicidal activity on BRAPP (broadleaf signalgrass), 20 DAT.
Source text: as §1, §2, §3, §4, §5, §6, §7, §8, §9

Several values for one entry are separate records, joined by “and”; a condition that tells them apart may be missing. Equal values may be shown once. Read-outs that look alike come from different tables or passages of the source.

`C#CCN1C(=O)COc2cc(F)c(N3C(=O)C4=C(CCCC4)C3=O)cc21` [flumioxazin]: the “% activity 20 DAT” value in the assay with Setaria viridis (C 0.5 g ai/ha) is reported as 40%.

What is called pest or weed control is the degree to which the test organism was suppressed or injured, in per cent. With `CS(=O)(=O)NC(=O)c1cc(Oc2ccc(C(F)(F)F)cc2Cl)ccc1[N+](=O)[O-]` [fomesafen], the inhibition at […] came to 20% in the assay on Echinochloa crus-galli (Echinochloa crus-galli, 480 h, 1.5 g ai/ha, 20 DAT, read-out: % activity 20 DAT, solo C application) and 20% in the assay with Digitaria sanguinalis (Digitaria sanguinalis, 480 h, 1.5 g ai/ha, 20 DAT, read-out: % activity 20 DAT, solo C application). The inhibition at 3 g/ha with Amaranthus retroflexus (Amaranthus retroflexus, 480 h, 3.0 g ai/ha, 20 DAT, read-out: % activity 20 DAT, solo C application) is 65%; in the assay with Abutilon theophrasti (Abutilon theophrasti, 480 h, 3.0 g ai/ha, 20 DAT, read-out: % activity 20 DAT, solo C application), 20%. Moreover, the “% activity 20 DAT” value with Brachiaria decumbens (C 3.0 g ai/ha) was 30%; with Avena fatua (C 1.5 g ai/ha) it was 20%. Moreover, the pest or weed control at […] in the assay with Abutilon theophrasti (Abutilon theophrasti, 480 h, C 1.5 g ai/ha) came to 5%.

`COCc1cnc(C2=NC(C)(C(C)C)C(=O)N2)c(C(=O)O)c1` (stereo not shown) [imazamox]: the “% activity 20 DAT” value in the assay on Echinochloa crus-galli (C 0.5 g ai/ha) was 0%; in the assay with Digitaria sanguinalis (C 1.0 g ai/ha) it was 15%; in the assay on Amaranthus retroflexus (C 0.125 g ai/ha) it was 10%. For the same molecule, the inhibition at 0.5 g/ha with Digitaria sanguinalis (Digitaria sanguinalis, 480 h, 0.5 g ai/ha, 20 DAT, read-out: % activity 20 DAT, solo C application) was found to be 10%; in the assay with Setaria viridis (Setaria viridis, 480 h, 0.5 g ai/ha, 20 DAT, read-out: % activity 20 DAT, solo C application), 15%; in the assay on Amaranthus retroflexus (Amaranthus retroflexus, 480 h, 0.5 g ai/ha, 20 DAT, read-out: % activity 20 DAT, solo C application) it was 40%; in the assay on Abutilon theophrasti (Abutilon theophrasti, 480 h, 20 DAT, Table 38, read-out: % activity 20 DAT, solo C application), 0%. Further, the pest or weed control at 0.5 g/ha with Abutilon theophrasti (Abutilon theophrasti, 480 h, C 0.5 g ai/ha) was determined as 0%.

With `CCc1cnc(C2=NC(C)(C(C)C)C(=O)N2)c(C(=O)O)c1` (stereo not shown) [imazethapyr], the “% activity 20 DAT” value in the assay with Digitaria sanguinalis (C 0.5 g ai/ha) is listed as 15%; with Digitaria sanguinalis (C 2.0 g ai/ha), 20%; in the assay on Amaranthus retroflexus (C 1.0 g ai/ha), 55%; in the assay with Avena fatua (C 0.5 g ai/ha), 0%.

With `CS(=O)(=O)c1cc(C(F)(F)F)ccc1C(=O)c1cnoc1C1CC1` [isoxaflutole], the “% activity 20 DAT” value is reported as 70% in the assay with Solarium nigrum, 25% in the assay with Digitaria sanguinalis (C 1.0 g ai/ha) and 40% in the assay on Brachiaria platyphylla (C 2.0 g ai/ha). Further, the inhibition at 0.5 g/ha in the assay on Abutilon theophrasti (Abutilon theophrasti, 480 h, 20 DAT, Table 36, read-out: % activity 20 DAT, solo C application) was 50%. In addition, in the assay with Abutilon theophrasti (Abutilon theophrasti, 480 h, C 1.0 g ai/ha), the pest or weed control at 1 g/ha worked out at 85%.

Turning to `CS(=O)(=O)c1ccc(C(=O)C2C(=O)CCCC2=O)c([N+](=O)[O-])c1` [mesotrione], in the assay with Digitaria sanguinalis (C 2.5 g ai/ha), the “% activity 20 DAT” value was 80%. The “% activity” value stood at 0% in the assay with Amaranthus retroflexus (20 DAT, C 0.625) and 35% with Brachiaria platyphylla (20 DAT, C 5.0). The inhibition at 5 g/ha in the assay on Brachiaria platyphylla (Urochloa platyphylla, 480 h, 5.0 g ai/ha, 20 DAT, read-out: % activity 20 DAT, solo C application) turned out to be 40%. The inhibition at 0.625 g/ha in the assay with Abutilon theophrasti (Abutilon theophrasti, 480 h, 0.625 g ai/ha, 20 DAT, read-out: % activity 20 DAT, solo C application) is 75%.

In the case of `CCC(CC)Nc1c([N+](=O)[O-])cc(C)c(C)c1[N+](=O)[O-]` [pendimethalin], the “% activity 20 DAT” value with Echinochloa crus-galli (C 75.0 g ai/ha), with Echinochloa crus-galli (C 150.0 g ai/ha) and with Avena fatua (C 150.0 g ai/ha) was 0% throughout. Further, the pest or weed control at 37.5 g/ha in the assay on Abutilon theophrasti (Abutilon theophrasti, 480 h, C 37.5 g ai/ha) came out at 0%.

Turning to `Cc1c(C(=O)c2cnn(C)c2O)ccc(S(C)(=O)=O)c1C1=NOCC1` [topramezone], the “% activity 20 DAT, solo C application” value in the assay with Echinochloa crus-galli (0.25 g ai/ha, 20 DAT) is 25%; in the assay on Setaria viridis (0.25 g ai/ha, 20 DAT) it was 0%; with Amaranthus retroflexus (0.25 g ai/ha, 20 DAT), 40%; with Avena fatua (0.25 g ai/ha, 20 DAT), 0%; in the assay on Abutilon theophrasti (0.25 g ai/ha, 20 DAT), 10%. Besides, the “% activity 20 DAT” value with Echinochloa crus-galli (C 0.25 g ai/ha) is 25% and 20%; in the assay with Setaria viridis (C 0.25 g ai/ha), 0%; in the assay with Setaria viridis (C 0.5 g ai/ha) it was 0%; with Amaranthus retroflexus (C 0.25 g ai/ha), 40%; with Brachiaria decumbens (C 0.25 g ai/ha), 0%; in the assay with Brachiaria decumbens (C 0.5 g ai/ha) it was 0%. Also, the “% activity 20 DAT” value with Abutilon theophrasti (C 0.25 g ai/ha) was 10% and 0%.
